What follows are compounds tested against T1, His-tagged human recombinant DDR-2 kinase domain (His-TEV-DDR2 467-855 aa) (Homo sapiens, UniProt Q16832) (assay: Autophosphorylation assay for biochemical activity testing of DDR2 (HTRF)). Conditions: 4 nM DDR2 kinase domain, 150 μM ATP, 150 min at 22° C.
T1 construct: His-TEV-DDR2 467-855 aa
T1 sequence (Q16832 467-855): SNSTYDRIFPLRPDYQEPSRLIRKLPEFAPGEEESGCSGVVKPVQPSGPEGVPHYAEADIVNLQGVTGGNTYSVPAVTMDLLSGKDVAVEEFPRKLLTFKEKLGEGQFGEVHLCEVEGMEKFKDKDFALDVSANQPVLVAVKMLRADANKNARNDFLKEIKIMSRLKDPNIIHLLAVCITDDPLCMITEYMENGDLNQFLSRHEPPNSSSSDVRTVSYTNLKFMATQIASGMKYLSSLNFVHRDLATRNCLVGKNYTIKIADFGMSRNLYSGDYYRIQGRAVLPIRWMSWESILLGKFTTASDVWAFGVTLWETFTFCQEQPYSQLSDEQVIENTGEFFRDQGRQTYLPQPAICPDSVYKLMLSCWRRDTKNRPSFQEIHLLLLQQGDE
Method: The autophosphorylation assay was run in two steps: the enzymatic reaction in which His-tagged DDR2 with ATP as co-substrate phosphorylates itself and the detection reaction where a time resolved FRET between XL665® labelled anti-6His antibody bound to the His-tag of the enzyme and cryptate labelled anti-phospho-Tyrosine-antibody (PT66) bound the phosphorylated Tyrosine residue of DDR2 was analysed. The autophosphorylation activity was detectable directly via the increase in HTRF signal.
The autophosphorylation assay was performed as 1536 well or 384 well HTRF® (Cisbio, Codolet, France) assay format in Greiner low volume medium binding 384-well microtiter plates and was used for high throughput screen. […] The ratio of the emission signals was determined. The full value used was the inhibitor-free reaction.
In the case of `COc1nc2ccccc2cc1NC(=O)NCc1ccc(Oc2ccnc(C)c2)c(C)c1` [compound 33], the IC50 is reported as 1700 nM.
`CNC(=O)c1cc(Oc2ccc(COC(=O)Nc3cc(C(F)(F)F)ccn3)cc2)ccn1` [compound 3] was tested, and the IC50 was 33 nM.
Work on `CNC(=O)c1cc(Oc2ccc(CNC(=O)Nc3cc(C)ccn3)cc2C)ccn1` [compound 15] yielded an IC50 of 400 nM.
`CNC(=O)c1cc(Oc2ccc(CNC(=O)Nc3ccc(C)cn3)cc2C)ccn1` [compound 13] gave an IC50 of 780 nM.
For `CNC(=O)c1cc(Oc2ccc(CNC(=O)Nc3ccc(OC)nc3)cc2)ccn1` [compound 17], the IC50 was 5600 nM.
With `CNC(=O)c1cc(Oc2ccc(COC(=O)Nc3cc(C(F)(F)F)cnc3O)cc2)ccn1` [compound 5] the IC50 was 610 nM.
`CNC(=O)c1cc(Oc2ccc(CNC(=O)Nc3cccnc3Cl)cc2)ccn1` [compound 16] gave an IC50 of 11000 nM.
In the case of `CNC(=O)c1cc(Oc2ccc(CNC(=O)Nc3cc(Cl)nc(Cl)c3)cc2)ccn1` [compound 2], the IC50 is reported as 1500 nM.

Same assay, conditions: Table 6; 4 nM DDR2 kinase domain, 150 μM ATP
`CNC(=O)c1cc(Oc2ccc(C(O)CC(=O)Nc3ccc(Cl)c(C(F)(F)F)c3)cc2C)ccn1` (centres unmarked) [compound 2] was tested, and the IC50 was 21000 nM.
In the case of `CNC(=O)c1cc(Oc2ccc(CCC(=O)Nc3ccc(Cl)c(C(F)(F)F)c3)cc2C)ccn1` [compound 3], the IC50 is reported as 1600 nM.

Same assay, conditions: biochemical DDR2 autophosphorylation
With `CNC(=O)c1cc(Oc2ccc(CNC(=O)Nc3cc(C)c(Cl)cc3OCCNS(C)(=O)=O)cc2)ccn1` [compound 193, 4-(4-{3-[4-Chloro-2-(2-methanesulfonylamino-ethoxy)-5-methyl-phenyl]-ureidomethyl}-phenoxy)-pyridine-2-carboxylic acid methylamide] the IC50 was 180 nM.
`CNC(=O)c1cc(Oc2ccc(CNC(=O)Nc3cc(C(F)(F)F)c(Cl)cc3OCCN(C)C)cc2)ccn1` [compound 95, 4-(4-{3-[4-Chloro-2-(2-dimethylamino-ethoxy)-5-trifluoromethyl-phenyl]-ureidomethyl}-phenoxy)-pyridine-2-carboxylic acid methylamide] gave an IC50 of 81 nM.
In the case of `CNC(=O)c1cc(Oc2ccc(CNC(=O)Nc3cc(C(F)(F)F)ccc3OCCN3CCOCC3)cc2)ccn1` [compound 109, 4-(4-{3-[2-(2-Morpholin-4-yl-ethoxy)-5-trifluoromethyl-phenyl]-ureidomethyl}-phenoxy)-pyridine-2-carboxylic acid methylamide], the IC50 is reported as 72 nM.
For `O=C(NCc1ccc(Oc2ccncc2)cc1)Nc1ccc(F)c(C(F)(F)F)c1` [compound 46, 1-(4-Fluoro-3-trifluoromethyl-phenyl)-3-[4-(pyridin-4-yloxy)-benzyl]-urea], the IC50 was 100 nM.
`CNC(=O)c1cc(Oc2ccc(CNC(=O)Nc3cc(C)ccc3OC)cc2)ccn1` [compound 75, 4-{4-[3-(2-Methoxy-5-methyl-phenyl)-ureidomethyl]-phenoxy}-pyridine-2-carboxylic acid methylamide] showed an IC50 of 69 nM.
Work on `CCN(CC)CCOc1ccc(C(F)(F)F)cc1NC(=O)NCc1ccc(Oc2ccnc(C(=O)NC)c2)cc1` [compound 108, 4-(4-{3-[2-(2-Diethylamino-ethoxy)-5-trifluoromethyl-phenyl]-ureidomethyl}-phenoxy)-pyridine-2-carboxylic acid methylamide] yielded an IC50 of 30 nM.
For `O=C(NCc1ccc(Oc2ccncc2)cc1)Nc1cc(Cl)ccc1Cl` [compound 10], the IC50 was 270 nM.
For `CNC(=O)c1cc(Oc2ccc(CNC(=O)Nc3cc(Cl)c(C)cc3OC)cc2C)ccn1` [compound 151, 4-{4-[3-(5-Chloro-2-methoxy-4-methyl-phenyl)-ureidomethyl]-2-methyl-phenoxy}-pyridine-2-carboxylic acid methylamide], the IC50 was 100 nM.
For `Cc1cc(NC(=O)NCc2ccc(Oc3ccncc3)cc2)ccc1Br` [compound 58, 1-(4-Bromo-3-methyl-phenyl)-3-[4-(pyridin-4-yloxy)-benzyl]-urea], the IC50 was 4700 nM.
`CNC(=O)c1cc(Oc2ccc(C(C)NC(=O)Nc3cc(C(F)(F)F)ccc3OC)cc2)ccn1` (centres unmarked) [compound 69, 4-(4-{1-[3-(2-Methoxy-5-trifluoromethyl-phenyl)-ureido]-ethyl}-phenoxy)-pyridine-2-carboxylic acid methylamide] gave an IC50 of 150 nM.
Work on `Cc1cc(NC(=O)NCc2ccc(Oc3ccncc3)c(C)c2)c(OCCN(C)C)cc1Cl` [compound 246, 1-[4-Chloro-2-(2-dimethylamino-ethoxy)-5-methyl-phenyl]-3-[3-methyl-4-(pyridin-4-yloxy)-benzyl]-urea] yielded an IC50 of 230 nM.
Compound `CNC(=O)c1cc(Oc2ccc(CNC(=O)Nc3ccccc3)cc2)ccn1` [compound 181, 4-{4-[(3-Phenyl-ureido)-methyl]-phenoxy}-pyridine-2-carboxylic acid methylamide] has an IC50 of 4900 nM.
Compound `Cc1ccc(NC(=O)NCc2ccc(Oc3ccncc3)cc2)cc1` [compound 18] has an IC50 of 4100 nM.
Compound `CNC(=O)c1cc(Oc2ccc(CNC(=O)Nc3cccnc3OC)cc2)ccn1` [compound 87, 4-{4-[3-(2-Methoxy-pyridin-3-yl)-ureidomethyl]-phenoxy}-pyridine-2-carboxylic acid methylamide] has an IC50 of 1600 nM.
`CNC(=O)c1cc(Oc2ccc(CNC(=O)Nc3cc4ccccc4nc3OC)cc2)ccn1` [compound 101, 4-{4-[3-(2-Methoxy-quinolin-3-yl)-ureidomethyl]-phenoxy}-pyridine-2-carboxylic acid methylamide] showed an IC50 of 190 nM.
`O=C(NCc1ccc(Oc2ccncc2)cc1)Nc1cc(C(F)(F)F)ccc1Cl` [compound 43, 1-(2-Chloro-5-trifluoromethyl-phenyl)-3-[4-(pyridin-4-yloxy)-benzyl]-urea] was tested, and the IC50 was 42 nM.
In the case of `Cc1cc(Cl)ccc1NC(=O)NCc1ccc(Oc2ccncc2)cc1` [compound 54, 1-(4-Chloro-2-methyl-phenyl)-3-[4-(pyridin-4-yloxy)-benzyl]-urea], the IC50 is reported as ≥ 100000 nM.
In the case of `CNC(=O)c1cc(Oc2ccc(CNC(=O)Nc3ccccc3OC)cc2)ccn1` [compound 14], the IC50 is reported as 1900 nM.
Compound `O=C(NCc1ccc(Oc2ccncc2)cc1)Nc1ccc(C(F)(F)F)cc1` [compound 21] has an IC50 of 2000 nM.
With `CNC(=O)c1cc(Oc2ccc(CNC(=O)Nc3cc(C(F)(F)F)c(Cl)cc3OCCN3CCCC3)cc2)ccn1` [compound 129, 4-(4-{3-[4-Chloro-2-(2-pyrrolidin-1-yl-ethoxy)-5-trifluoromethyl-phenyl]-ureidomethyl}-phenoxy)-pyridine-2-carboxylic acid methylamide] the IC50 was 250 nM.
For `COc1ccccc1NC(=O)NCc1ccc(Oc2ccncc2)cc1` [compound 36, 1-(2-Methoxy-phenyl)-3-[4-(pyridin-4-yloxy)-benzyl]-urea], the IC50 was 1700 nM.
With `O=C(NCc1ccc(Oc2ccncc2)cc1)Nc1ccccc1Cl` [compound 33] the IC50 was ≥ 100000 nM.
`Cc1cc2nccc(Oc3ccc(CNC(=O)Nc4cc(C)c(Cl)cc4OCCN(C)C)cc3C)c2o1` [compound 253, 1-[4-Chloro-2-(2-dimethylamino-ethoxy)-5-methyl-phenyl]-3-[3-methyl-4-(2-methyl-furo[3,2-b]pyridin-7-yloxy)-benzyl]-urea] showed an IC50 of 70 nM.
For `CC(C)c1ccc(NC(=O)NCc2ccc(Oc3ccncc3)cc2)cc1` [compound 49, 1-(4-Isopropyl-phenyl)-3-[4-(pyridin-4-yloxy)-benzyl]-urea], the IC50 was 9600 nM.
Compound `CNC(=O)c1cc(Oc2ccc(CNC(=O)Nc3cc(C)ccc3OC3CCNCC3)cc2C)ccn1` [compound 171, 4-(2-Methyl-4-{3-[5-methyl-2-(piperidin-4-yloxy)-phenyl]-ureidomethyl}-phenoxy)-pyridine-2-carboxylic acid methylamide] has an IC50 of 47 nM.
With `CNC(=O)c1cc(Oc2ccc(CNC(=O)Nc3cc(C(F)(F)F)ccc3OCCN)cc2)ccn1` [compound 121, 4-(4-{3-[2-(2-Amino-ethoxy)-5-trifluoromethyl-phenyl]-ureidomethyl}-phenoxy)-pyridine-2-carboxylic acid methylamide] the IC50 was 34 nM.
Work on `O=C(NCc1ccc(Oc2ccncc2)cc1)Nc1ccc(F)cc1` [compound 11] yielded an IC50 of 3400 nM.
`O=C(NCc1ccc(Oc2ccncc2)cc1)Nc1ccc(OC(F)(F)F)cc1` [compound 55, 1-[4-(Pyridin-4-yloxy)-benzyl]-3-(4-trifluoromethoxy-phenyl)-urea] was tested, and the IC50 was 7500 nM.
`CNC(=O)c1cc(Oc2ccc(CNC(=O)Nc3cc(C(F)(F)F)c(Cl)cc3OCC(=O)OC(C)C)cc2)ccn1` [compound 114, (5-Chloro-2-{3-[4-(2-methylcarbamoyl-pyridin-4-yloxy)-benzyl]-ureido}-4-trifluoromethyl-phenoxy)-acetic acid isopropyl ester] gave an IC50 of 24 nM.
`CCc1ccc(NC(=O)NCc2ccc(Oc3ccncc3)cc2)cc1` [compound 52, 1-(4-Ethyl-phenyl)-3-[4-(pyridin-4-yloxy)-benzyl]-urea] was tested, and the IC50 was 9900 nM.
In the case of `CNC(=O)c1cc(Oc2ccc(CNC(=O)Nc3cc(C(F)(F)F)ccc3OCCNS(C)(=O)=O)cc2)ccn1` [compound 180, 4-(4-{3-[2-(2-Methanesulfonylamino-ethoxy)-5-trifluoromethyl-phenyl]-ureidomethyl}-phenoxy)-pyridine-2-carboxylic acid methylamide], the IC50 is reported as 32 nM.

From patent publication US20150225369A1, “DDR2 INHIBITORS FOR THE TREATMENT OF OSTEOARTHRITIS” (Merck Patent GmbH, priority 2012, published 2015)
